Key:
HIV-1 strain IIIB = test: Retrovirucidal effect on HIV-1 strain IIIB (Table 3); assay type: cell-based
Procedure, shortened: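 Virus (100 TCID50 HIV-1 in cell supernatant) exposed to compound 3 h at room temperature, then washed free of compound by membrane filtration. Residual infectivity measured on P4 cells after one day as β-galactosidase activity with MUG substrate (3 h, 37° C), read by fluorescence.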

HIV-1 strain 103 N = test: Retrovirucidal effect on HIV-1 strain 103 N (Table 3); assay type: cell-based
Procedure, shortened: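 HIV-1 103N (RT K103N mutant; 100 TCID50) was exposed to inhibitor for 3 h at room temperature and then washed free of compound by membrane filtration. Residual infectivity was measured on P4 cells: one day after infection, β-galactosidase was read by MUG fluorescence after 3 h at 37 °C.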

[1] = Antiviral activity on HIV-LAI wild type; assay type: cell-based, HIV-1; conditions: HIV-LAI wild type test
Procedure: (§1) The antiviral activity, the expression and purification of the recombinant HIV-RT enzyme, the reverse transcriptase activities and the inhibition of RT were evaluated as described in WO 97/05 113.
(§2) The antiviral activity of the compounds according to example 1 has been tested on various strains.

HIV-LAI wild type = test: Antiviral activity on HIV-LAI wild type; assay type: cell-based, HIV-1; conditions: HIV-LAI wild type
Procedure: as §1, §2

[2] = Antiviral activity on HIV-1 nevirapine resistant strain; assay type: cell-based; conditions: HIV-1 novirapine resistant strain test
Procedure: as §1
(§3) On an HIV-1 novirapine resistant strain the activities of the compound of example 1 are as follows: […]

[3] = test system: HIV-1 novirapine resistant strain; test: as above; assay type: cell-based; conditions: Human immunodeficiency virus 1
Procedure: as §1, §3

[4] = Anti HIV-1 activity, HIV-1 IIIB in MT4 cells; assay type: cell-based; conditions: human; HIV-1 IIIIB/MT4
Procedure: as §1
(§4) The compound of example 1 has been also tested on various HIV strains and primary cell cultures. The table 1 illustrates the activity of this compound on these strains.

HIV-1 IIIIB/MT4 = test: Anti HIV-1 activity, HIV-1 IIIB in MT4 cells; assay type: cell-based; conditions: Human immunodeficiency virus 1
Procedure: as §1, §4

HIV-1 AZTres./MT4 = test: Anti HIV-1 activity, HIV-1 AZT-resistant strain in MT4 cells; assay type: cell-based; conditions: Human immunodeficiency virus 1, MT4
Procedure: as §1, §4

[5] = Anti HIV-1 activity, HIV-1 IIIB in PBMC; assay type: cell-based; conditions: HIV-1 IIIB/PBMC
Procedure: as §1, §4

HIV-1 IIIB/PBMC = test: Anti HIV-1 activity, HIV-1 IIIB in PBMC; assay type: cell-based; conditions: Human immunodeficiency virus 1
Procedure: as §1, §4

[6] = Anti HIV activity, HIV-2 D 194 in PBMC; assay type: cell-based; conditions: HIV-2 D 194/PBMC
Procedure: as §1, §4

HIV-2 D 194/PBMC = test: Anti HIV activity, HIV-2 D 194 in PBMC; assay type: cell-based; conditions: Human immunodeficiency virus 2
Procedure: as §1, §4

[7] = Anti HIV-1 activity, HIV-1 Bal in monocytes/macrophages; assay type: cell-based; conditions: HIV-1 Bal/Mono/macrophages
Procedure: as §1, §4

[8] = test system: HIV-1 Bal/Mono/macrophages; test: as above; assay type: cell-based; conditions: Human immunodeficiency virus 1, Macrophage
Procedure: as §1, §4

HIV-ILai isolate = test: Retrovirucidal effect (residual infectivity on P4 cells); assay type: cell-based, HIV-1; conditions: 3 hours with virions
Procedure: The retrovirucidal effect and the reverse transcription were measured as described hereinafter.
HIV-1 viral suspensions were obtained by coculture of MT4 cells and H9 cells chronically infected by HIV-ILai isolate. 200 μl of a cell supernatant containing viral particles (HIV-ILai: 100 TCID50) were incubated at room temperature with various concentrations of different inhibitors. After 3 hours, virions were washed through 0.02 μm anopore membrane in 1.5 mL Vectaspin tube (Whatman) for 10 minutes at 5 000 g. Each of the three subsequent washes was performed in the same conditions after the viral concentrate was refilled with 500 μL of RPMI medium. Then, the viral concentrate was readjusted to the initial volume with RPMI plus 10% foetal calf serum (FCS). The residual infectivity was assayed on P4 cells as described by CHARNEAU et al. (1994, J. Mol. Biol., 241, 651-662). Briefly, P4 cells were plated using 100 μL of DMEM medium plus 10% FCS in 96 plate multi-wells at 20×10^5 cells per mL. After overnight incubation at 37° C., the supernatant was discarded and the viral preparation (200 μL) was added. One day later the wells were washed three times in PBS. Each well was refilled with 200 μL of a reaction buffer containing 50 mM Tris-HCl pH 8.5, 100 mM 2-mercaptoethanol, 0.05% Triton X-100 and 5 mM 4-methylumbelliferyl β-D-galactopyranoside (MUG). After 3 hours at 37° C., the level of the reaction was measured in a fluorescence microplate reader.
The retrovirucidal effect of the compound according to example 1 has been tested.

[9] = biological target: T1, recombinant HIV-RT enzyme (Human immunodeficiency virus type 1 group M subtype B, UniProt P03366); test: Inhibition of the reverse transcriptase; assay type: biochemical
T1 construct: the recombinant HIV-RT enzyme; made in house
Procedure: as §1
The IC50 of the compound of example 1 for the inhibition of the reverse transcriptase is 20 nM.

[10] = HIV-1 strain 103N (RT Lys-103 to Asn mutant), pIC50=-log IC50, IC50 in M

With `CCc1c(C)[nH]c(=O)c(N(C)CC)c1C(=O)c1cccc(Br)c1` [Compound 185] the “HIV1 pIC50 strain IIIB” value (HIV-1 strain IIIB; pIC50=-log IC50, IC50 in M) was 8.745 and the “HIV1 pIC50 strain 103N” value (HIV-1 strain 103 N; [10]) was 7.433.

In the case of `CCc1c(C)[nH]c(=O)c(N(C)C)c1C(=O)c1cc(Br)cs1` [Compound 187], the “HIV1 pIC50 strain IIIB” value (HIV-1 strain IIIB; pIC50=-log IC50, IC50 in M) is reported as 8.481 and the “HIV1 pIC50 strain 103N” value (HIV-1 strain 103 N; [10]) is reported as 7.006.

In the case of `CCc1c(C)[nH]c(=O)c(N(C)C)c1Cc1cc(Cl)cc(Cl)c1` [Compound 191], the “HIV1 pIC50 strain IIIB” value (HIV-1 strain IIIB; pIC50=-log IC50, IC50 in M) is reported as 8.097 and the “HIV1 pIC50 strain 103N” value (HIV-1 strain 103 N; [10]) is reported as 7.553.

With `CCc1c(C)[nH]c(=O)c(N(C)C)c1C(=O)c1cc(Cl)cc(Cl)c1` [Compound 192] the “HIV1 pIC50 strain IIIB” value (HIV-1 strain IIIB; pIC50=-log IC50, IC50 in M) was 8.699 and the “HIV1 pIC50 strain 103N” value (HIV-1 strain 103 N; [10]) was 8.319.

With `CCc1c(C)[nH]c(=O)c(N(C)C)c1Sc1cccc(Br)c1` [Compound 193] the “HIV1 pIC50 strain IIIB” value (HIV-1 strain IIIB; pIC50=-log IC50, IC50 in M) was 8.481 and the “HIV1 pIC50 strain 103N” value (HIV-1 strain 103 N; [10]) was 7.245.

For `CCc1c(C)[nH]c(=O)c(N(C)C)c1Oc1cc(C)cc(C)c1` [Compound 201], the “HIV1 pIC50 strain IIIB” value (HIV-1 strain IIIB; retrovirucidal effect, pIC50=-log IC50 (M)) was 8.585 and the “HIV1 pIC50 strain 103N” value (HIV-1 strain 103 N; retrovirucidal effect, HIV-1 strain 103N (Lys-103 to Asn RT mutant), pIC50=-log IC50 (M)) was 7.231.

Compound `CCc1c(C)[nH]c(=O)c(N(C)C)c1Cc1cc(C)cc(C)c1` [Example 1, 3-dimethylamino-4-(3,5-dimethylbenzyl)-5-ethyl-6-methylpyridin-2(1H)-one] has a CC50 [1] greater than 100000 nM, a S.I. (HIV-LAI wild type) greater than 33.333 and an IC50 (HIV-LAI wild type; Human immunodeficiency virus 1) of 0.2 nM. For the same compound, the CC50 [2] was greater than 10000 nM, the IC50 [3] was greater than 10000 nM and the CC50 [4] was greater than 1000 nM. For the same compound, the IC50 (HIV-1 IIIIB/MT4) was 2.4 nM, the IC50 (HIV-1 AZTres./MT4) was 0.2 nM and the CC50 [5] was greater than 1000 nM. The IC50 (HIV-1 IIIB/PBMC) was 0.58 nM, the CC50 [6] was greater than 1000 nM and the IC50 (HIV-2 D 194/PBMC) was greater than 1000 nM. For the same compound, the CC50 [7] was greater than 1000 nM, the IC50 [8] was 0.004 nM and the “% inhibition of infectivity” value (HIV-ILai isolate; 1 μm compound) was 83%. The “% inhibition of infectivity” value (HIV-ILai isolate; 10 μm compound) was 99%, the inhibition at 0.01 µM (HIV-ILai isolate; Human immunodeficiency virus 1, 10 nM compound) was 26% and the inhibition at 0.1 µM (HIV-ILai isolate; Human immunodeficiency virus 1, 100 nM compound) was 46%. The IC50 [9] was 20 nM.

From patent publication US6683079B2, “3-(amino-or aminoalkyl) pyridinone derivatives and their use for the treatment of HIV related diseases” (Centre National de la Recherche Scientifique, priority 1998, dated 2004)
